Laboratory results from ChEMBL document CHEMBL4219142, “Discovery of potent DOT1L inhibitors by AlphaLISA based High Throughput Screening assay” (Bioorg Med Chem, 2018).

Assays:
[1] = tested on: MV4-11; test: Antiproliferative activity against human MV411 cells after 72 hrs by Alamar blue assay; type: functional, cell-based; details: MV4-11, 72 h
[2] = tested on: MV4-11; test: Induction of apoptosis in human MV411 cells assessed as early apoptotic cells at 0.3125 uM after 48 hrs by Annexin-V-FITC/propidium iodide staining based flow cytometric method (reference value: 1.15 to […]); type: functional
[3] = tested on: MV4-11; test: Induction of apoptosis in human MV411 cells assessed as viable cells at 1.25 uM after 48 hrs by Annexin-V-FITC/propidium iodide staining based flow cytometric method (reference value: 88.5 to 94.5%); type: functional; details: MV4-11, 48 h, read-out: Activity
[4] = tested on: MV4-11; test: Cell cycle arrest in human MV411 cells assessed as accumulation at G1 phase after 24 hrs by propidium iodide staining based flow cytometric analysis; type: functional
[5] = tested on: MV4-11; test: Induction of apoptosis in human MV411 cells assessed as late apoptotic cells at 0.3125 uM after 48 hrs by Annexin-V-FITC/propidium iodide staining based flow cytometric method (reference value: 4.38 to 4.63%); type: functional
[6] = tested on: MV4-11; test: Cell cycle arrest in human MV411 cells assessed as accumulation at S phase at 0.3125 uM after 24 hrs by propidium iodide staining based flow cytometric analysis (reference value: 30.25 to 47.5%); type: functional
[7] = tested on: MV4-11; test: Cell cycle arrest in human MV411 cells assessed as accumulation at G1 phase at 1.25 uM after 24 hrs by propidium iodide staining based flow cytometric analysis (reference value: 40.62 to 65.56%); type: functional
[8] = tested on: MV4-11; test: Induction of apoptosis in human MV411 cells assessed as late apoptotic cells at 0.625 uM after 48 hrs by Annexin-V-FITC/propidium iodide staining based flow cytometric method (reference value: 4.38 to 4.63%); type: functional
[9] = tested on: MV4-11; test: Cell cycle arrest in human MV411 cells assessed as accumulation at S phase at 0.625 uM after 24 hrs by propidium iodide staining based flow cytometric analysis (reference value: 30.25 to 47.5%); type: functional
[10] = tested on: MV4-11; test: Cell cycle arrest in human MV411 cells assessed as accumulation at G1 phase at 0.3125 uM after 24 hrs by propidium iodide staining based flow cytometric analysis (reference value: 40.62 to 65.56%); type: functional
[11] = target: T1, Histone-lysine N-methyltransferase, H3 lysine-79 specific (Homo sapiens, UniProt Q8TEK3); test: (§1) Inhibition of recombinant human His6-SUMO tagged DOT1L (1 to 416 residues) expressed in Escherichia coli BL21(DE3) at 50 uM using oligonucleosome as substrate pretreated for 15 mins followed by substrate addition measured after 60 mins in presence of [3H]SAM by liquid scintillation counting method relative to control
Target sequence in this assay (Q8TEK3 whole entry, looked up, the tested form may be a part): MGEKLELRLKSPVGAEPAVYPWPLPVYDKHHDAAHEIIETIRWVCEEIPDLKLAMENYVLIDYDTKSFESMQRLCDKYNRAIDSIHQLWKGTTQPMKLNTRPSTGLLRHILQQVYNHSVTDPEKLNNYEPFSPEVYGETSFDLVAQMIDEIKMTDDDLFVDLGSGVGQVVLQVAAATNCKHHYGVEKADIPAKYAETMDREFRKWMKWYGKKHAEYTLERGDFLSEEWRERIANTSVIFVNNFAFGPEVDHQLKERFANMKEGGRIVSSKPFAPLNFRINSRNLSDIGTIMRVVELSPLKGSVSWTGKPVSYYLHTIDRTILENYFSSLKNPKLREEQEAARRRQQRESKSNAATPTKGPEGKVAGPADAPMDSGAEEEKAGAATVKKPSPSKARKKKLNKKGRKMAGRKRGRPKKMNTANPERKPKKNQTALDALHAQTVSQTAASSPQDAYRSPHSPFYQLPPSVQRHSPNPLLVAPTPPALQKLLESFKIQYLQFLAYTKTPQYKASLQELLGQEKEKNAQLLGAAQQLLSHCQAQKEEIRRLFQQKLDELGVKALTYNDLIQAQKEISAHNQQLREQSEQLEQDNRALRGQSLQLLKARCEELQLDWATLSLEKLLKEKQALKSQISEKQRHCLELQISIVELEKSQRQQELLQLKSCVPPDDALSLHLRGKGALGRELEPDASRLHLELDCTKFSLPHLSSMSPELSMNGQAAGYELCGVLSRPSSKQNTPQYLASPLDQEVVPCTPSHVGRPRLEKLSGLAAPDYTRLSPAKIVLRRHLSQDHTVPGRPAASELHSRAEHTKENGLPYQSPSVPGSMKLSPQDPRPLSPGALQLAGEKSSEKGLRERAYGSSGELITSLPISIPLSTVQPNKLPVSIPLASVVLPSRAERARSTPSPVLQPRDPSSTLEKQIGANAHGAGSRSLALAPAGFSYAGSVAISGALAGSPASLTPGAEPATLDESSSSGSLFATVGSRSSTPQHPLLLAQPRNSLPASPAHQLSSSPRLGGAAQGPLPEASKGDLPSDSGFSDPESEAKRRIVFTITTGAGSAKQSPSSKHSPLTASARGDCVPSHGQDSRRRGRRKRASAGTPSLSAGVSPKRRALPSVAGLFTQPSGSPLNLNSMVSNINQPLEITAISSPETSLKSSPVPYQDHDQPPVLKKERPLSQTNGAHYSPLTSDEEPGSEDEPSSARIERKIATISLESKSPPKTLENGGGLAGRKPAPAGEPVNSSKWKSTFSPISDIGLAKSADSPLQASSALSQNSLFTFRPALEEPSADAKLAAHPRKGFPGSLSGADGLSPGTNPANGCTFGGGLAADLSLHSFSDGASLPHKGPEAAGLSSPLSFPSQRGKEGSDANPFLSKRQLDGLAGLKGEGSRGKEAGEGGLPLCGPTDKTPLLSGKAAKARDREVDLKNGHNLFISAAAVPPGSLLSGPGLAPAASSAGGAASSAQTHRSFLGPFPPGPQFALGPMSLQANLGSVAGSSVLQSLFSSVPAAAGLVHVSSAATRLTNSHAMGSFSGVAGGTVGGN

[12] = tested on: MV4-11; test: Induction of apoptosis in human MV411 cells assessed as early apoptotic cells at 0.625 uM after 48 hrs by Annexin-V-FITC/propidium iodide staining based flow cytometric method (reference value: 1.15 to […]); type: functional
[13] = tested on: MV4-11; test: Cell cycle arrest in human MV411 cells assessed as accumulation at G2 phase at 1.25 uM after 24 hrs by propidium iodide staining based flow cytometric analysis (reference value: 4.19 to 11.88%); type: functional
[14] = tested on: MV4-11; test: Induction of apoptosis in human MV411 cells assessed as viable cells at 0.3125 uM after 48 hrs by Annexin-V-FITC/propidium iodide staining based flow cytometric method (reference value: 88.5 to 94.5%); type: functional; details: MV4-11, 48 h, read-out: Activity
[15] = tested on: MV4-11; test: Induction of apoptosis in human MV411 cells assessed as necrotic cells at 1.25 uM after 48 hrs by Annexin-V-FITC/propidium iodide staining based flow cytometric method (Rvb <= 0.08%); type: functional
[16] = target: T1, Histone-lysine N-methyltransferase, H3 lysine-79 specific; test: Binding affinity to recombinant human His6-SUMO tagged DOT1L (1 to 416 residues) expressed in Escherichia coli BL21(DE3) by surface plasmon resonance method
Target sequence in this assay (Q8TEK3 whole entry, the tested form may be a part): as the sequence (Q8TEK3 whole entry, looked up, the tested form may be a part) above

[17] = tested on: MV4-11; test: Cell cycle arrest in human MV411 cells assessed as accumulation at S phase at 1.25 uM after 24 hrs by propidium iodide staining based flow cytometric analysis (reference value: 30.25 to 47.5%); type: functional
[18] = tested on: MV4-11; test: Cell cycle arrest in human MV411 cells assessed as accumulation at G2 phase at 0.3125 uM after 24 hrs by propidium iodide staining based flow cytometric analysis (reference value: 4.19 to 11.88%); type: functional
[19] = tested on: MV4-11; test: Induction of apoptosis in human MV411 cells assessed as necrotic cells at 0.625 uM after 48 hrs by Annexin-V-FITC/propidium iodide staining based flow cytometric method (Rvb <= 0.08%); type: functional
[20] = target: T1, Histone-lysine N-methyltransferase, H3 lysine-79 specific; test: Inhibition of recombinant human His6-SUMO tagged DOT1L (1 to 416 residues) expressed in Escherichia coli BL21(DE3) using oligonucleosome as substrate pretreated for 15 mins followed by substrate addition measured after 60 mins in presence of [3H]SAM by liquid scintillation counting method
Target sequence in this assay (Q8TEK3 whole entry, the tested form may be a part): as the sequence (Q8TEK3 whole entry, looked up, the tested form may be a part) above

[21] = tested on: MV4-11; test: Induction of apoptosis in human MV411 cells assessed as late apoptotic cells at 1.25 uM after 48 hrs by Annexin-V-FITC/propidium iodide staining based flow cytometric method (reference value: 4.38 to 4.63%); type: functional
[22] = tested on: MV4-11; test: Induction of apoptosis in human MV411 cells assessed as early apoptotic cells at 1.25 uM after 48 hrs by Annexin-V-FITC/propidium iodide staining based flow cytometric method (reference value: 1.15 to […]); type: functional
[23] = target: T1, Histone-lysine N-methyltransferase, H3 lysine-79 specific; test: as §1, with “100” for “50”
Target sequence in this assay (Q8TEK3 whole entry, looked up, the tested form may be a part): as above

[24] = tested on: MV4-11; test: Induction of apoptosis in human MV411 cells assessed as viable cells at 0.625 uM after 48 hrs by Annexin-V-FITC/propidium iodide staining based flow cytometric method (reference value: 88.5 to 94.5%); type: functional; details: MV4-11, 48 h, read-out: Activity
[25] = tested on: MV4-11; test: Cell cycle arrest in human MV411 cells assessed as accumulation at G2 phase at 0.625 uM after 24 hrs by propidium iodide staining based flow cytometric analysis (reference value: 4.19 to 11.88%); type: functional
[26] = target: T1, Histone-lysine N-methyltransferase, H3 lysine-79 specific; test: as §1, with “25” for “50”
Target sequence in this assay (Q8TEK3 whole entry, looked up, the tested form may be a part): as above

[27] = tested on: MV4-11; test: Induction of apoptosis in human MV411 cells assessed as necrotic cells at 0.3125 uM after 48 hrs by Annexin-V-FITC/propidium iodide staining based flow cytometric method (Rvb <= 0.08%); type: functional
[28] = tested on: MV4-11; test: Cell cycle arrest in human MV411 cells assessed as accumulation at G1 phase at 0.625 uM after 24 hrs by propidium iodide staining based flow cytometric analysis (reference value: 40.62 to 65.56%); type: functional

- IC50 [1]: 1.07 µM
- inhibition [11]: 75%
- Kd [16]: 7.08 µM
- IC50 [20]: 9.7 µM
- inhibition [23]: 78%
- inhibition [26]: 62%
Compound: COc1ccccc1-c1nnc2sc(/C=C/c3ccco3)nn12
- Activity [2]: 13.7%
- viability at 1.25 µM [3]: 9.46%
- Activity [4]: Dose-dependent effect
- Activity [5]: 12%
- Activity [6]: 37.51%
- Activity [7]: 58.01%
- Activity [8]: 35.3%
- Activity [9]: 32.19%
- Activity [10]: 46.31%
- Activity [12]: 33.2%
- Activity [13]: 23.18%
- viability at 0.3125 µM [14]: 73.6%
- Activity [15]: 0.91%
- Activity [17]: 18.51%
- Activity [18]: 16.17%
- Activity [19]: 1.11%
- Activity [21]: 45.5%
- Activity [22]: 44.1%
- viability at 0.625 µM [24]: 30.4%
- Activity [25]: 10.59%
- Activity [27]: 0.72%
- Activity [28]: 57.22%
